Test results: ChEMBL document CHEMBL1201862, “PubChem BioAssay data set” (2004)
Calls of active or inactive are those of the source.

Key:
[1] = NIH3T3 cell viability loss – ATP luminescence, mouse fibroblasts, counter-screen, dose response (AID 2010); type: functional, cell-based; settings: NIH3T3;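 note: cells exposed to compound for about 90 hours before reading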
[2] = Trypanosoma cruzi growth suppression in host cells – NIH3T3 host cells, beta-gal luminescence, confirmation (AID 2044); type: functional, cell-based;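 note: intracellular parasites grown in NIH/3T3 mouse fibroblasts as host cells; luminescent beta-galactosidase reporter signal from transgenic T. cruzi replicating inside host cells; inhibitors lower the luminescence signal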
[3] = target: Heat shock protein HSP 90-alpha (Homo sapiens, UniProt P07900); assay: Luminescence-based dose response biochemical high throughput screening assay for inhibitors of the Heat Shock Protein 90 (HSP90). [Related pubchem assays: 1831 (Summary AID.), 1846 (Confirmation screen.), 1789 (Primary screen.)]
[4] = inhibitors of TRPM1-promoter reporter in SK-MEL-5 – cell-based, luciferase, dry powder, set 9, MITF inhibitor project, dose response (AID 651588); type: functional
[5] = viability loss in MITF-independent A375 cells – cell-based, CellTiter-Glo luminescence, dry powder, set 6, counter-screen for MITF inhibitor project, dose response (AID 624488); type: functional; settings: A-375
[6] = cytotoxicity in MITF-independent A375 cells – cell-based, CellTiter-Glo luminescence, dry powder, set 4, counter-screen for MITF inhibitor project, dose response (AID 624364); type: functional; settings: A-375;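 note: A375 melanoma cells are MITF independent so this is a counter screen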
[7] = MITF Measured in Cell-Based System Using Plate Reader - 2084-01_Inhibitor_Dose_DryPowder_Activity_Set6.; type: functional
[8] = target: T1, Apoptotic protease-activating factor 1 (Homo sapiens, UniProt O14727); type: functional
T1 sequence (O14727 whole entry): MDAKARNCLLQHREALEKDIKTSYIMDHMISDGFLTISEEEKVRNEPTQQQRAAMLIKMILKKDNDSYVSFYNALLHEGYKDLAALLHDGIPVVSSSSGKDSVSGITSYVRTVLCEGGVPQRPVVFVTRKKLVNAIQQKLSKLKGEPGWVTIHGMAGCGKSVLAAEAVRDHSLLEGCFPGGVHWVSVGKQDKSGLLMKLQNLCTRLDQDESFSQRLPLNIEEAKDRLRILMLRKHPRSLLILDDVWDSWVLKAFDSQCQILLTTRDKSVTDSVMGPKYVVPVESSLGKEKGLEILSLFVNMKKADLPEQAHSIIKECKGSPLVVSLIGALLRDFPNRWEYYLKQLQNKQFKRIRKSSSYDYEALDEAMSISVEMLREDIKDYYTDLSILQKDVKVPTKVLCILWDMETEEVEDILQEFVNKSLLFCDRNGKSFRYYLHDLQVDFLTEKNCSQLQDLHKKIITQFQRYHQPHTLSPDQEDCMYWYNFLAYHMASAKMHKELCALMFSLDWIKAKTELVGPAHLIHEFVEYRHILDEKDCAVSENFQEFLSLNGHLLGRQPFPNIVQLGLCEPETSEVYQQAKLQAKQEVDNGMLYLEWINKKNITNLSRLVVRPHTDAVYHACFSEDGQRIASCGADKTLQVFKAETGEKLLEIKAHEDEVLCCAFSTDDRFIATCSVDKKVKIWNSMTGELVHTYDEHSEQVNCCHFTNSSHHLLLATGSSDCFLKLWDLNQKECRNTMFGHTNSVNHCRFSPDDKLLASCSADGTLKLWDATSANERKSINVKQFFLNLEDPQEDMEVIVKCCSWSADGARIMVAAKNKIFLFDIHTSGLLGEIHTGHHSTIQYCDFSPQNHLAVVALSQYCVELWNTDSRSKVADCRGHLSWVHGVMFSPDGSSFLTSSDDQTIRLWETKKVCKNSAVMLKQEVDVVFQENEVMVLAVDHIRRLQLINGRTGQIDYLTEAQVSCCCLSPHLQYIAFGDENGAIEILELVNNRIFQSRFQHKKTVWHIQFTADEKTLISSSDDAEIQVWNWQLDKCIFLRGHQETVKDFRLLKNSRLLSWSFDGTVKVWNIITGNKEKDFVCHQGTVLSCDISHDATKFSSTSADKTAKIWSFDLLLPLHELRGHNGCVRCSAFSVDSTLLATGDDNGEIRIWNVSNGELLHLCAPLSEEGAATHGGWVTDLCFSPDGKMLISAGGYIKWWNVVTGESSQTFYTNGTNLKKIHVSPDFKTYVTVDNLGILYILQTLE

[9] = viability loss in MITF-independent A375 cells – cell-based, CellTiter-Glo luminescence, dry powder, set 2, counter-screen for MITF inhibitor project, dose response (AID 624489); type: functional; settings: A-375;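 note: actives are compounds lowering A375 viability meaning general cytotoxicity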
[10] = MITF Orthogonal Assay: MALME3 CTG Assay Measured in Cell-Based System Using Plate Reader - 2084-04_Inhibitor_Dose_DryPowder_Activity_Set6.; type: functional; settings: MALME-3
[11] = target: T2, Microphthalmia-associated transcription factor (Homo sapiens, UniProt O75030); assay: reducers of TRPM1 reporter luminescence, concentration series – cell-based, SK-MEL-5, cherry-picked, set 3, MITF inhibitor project, dose response (AID 493073); type: functional;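 note: SK-MEL-5 melanoma cells with luciferase driven by the MITF target TRPM1 promoter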
T2 sequence (O75030 whole entry): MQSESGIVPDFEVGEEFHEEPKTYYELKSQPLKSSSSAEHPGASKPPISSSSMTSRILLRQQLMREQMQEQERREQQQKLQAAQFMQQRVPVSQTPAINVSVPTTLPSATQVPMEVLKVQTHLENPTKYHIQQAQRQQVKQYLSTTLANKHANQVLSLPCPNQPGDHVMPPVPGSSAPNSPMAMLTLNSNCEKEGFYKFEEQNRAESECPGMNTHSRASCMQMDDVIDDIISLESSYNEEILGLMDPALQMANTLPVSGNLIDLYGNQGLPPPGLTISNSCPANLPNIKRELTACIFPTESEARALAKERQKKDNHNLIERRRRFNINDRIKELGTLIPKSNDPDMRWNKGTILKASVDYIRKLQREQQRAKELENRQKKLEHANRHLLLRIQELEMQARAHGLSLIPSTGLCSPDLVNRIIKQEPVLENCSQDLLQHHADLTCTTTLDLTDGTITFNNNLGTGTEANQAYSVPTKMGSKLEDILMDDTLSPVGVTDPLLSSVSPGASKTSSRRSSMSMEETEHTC

[12] = viability loss in MITF-independent A375 cells – cell-based, CellTiter-Glo luminescence, dry powder, set 7, counter-screen for MITF inhibitor project, dose response (AID 624490); type: functional; settings: A-375
[13] = growth inhibition of MALME3 cells – cell-based, CellTiter-Glo luminescence, dry powder, set 5, orthogonal assay for MITF inhibitor project, dose response (AID 651584); type: functional; settings: MALME-3
[14] = MITF Orthogonal Assay: SK-MEL-5 CTG Assay Measured in Cell-Based System Using Plate Reader - 2084-02_Inhibitor_Dose_DryPowder_Activity_Set5.; type: functional
[15] = MITF Measured in Cell-Based System Using Plate Reader - 2084-01_Inhibitor_Dose_DryPowder_Activity_Set7.; type: functional
[16] = cytotoxicity in MITF-independent A375 cells – cell-based, CellTiter-Glo luminescence, dry powder, set 9, counter-screen for MITF modulator project, dose response (AID 651591); type: functional; settings: A-375
[17] = growth inhibition of SK-MEL-5 melanoma cells – cell-based, CellTiter-Glo luminescence, dry powder, set 8, orthogonal assay for MITF inhibitor project, dose response (AID 651586); type: functional
[18] = cytotoxicity in melanoma parental cells – cell-based, CellTiter-Glo, dry powder, set 6, MITF inhibitor project, dose response (AID 624429); type: functional; settings: SK-MEL-5
HT-1080 = assay: HT1080 cell viability loss – fluorescence readout (AID 620); type: functional, cell-based; settings: Homo sapiens
[19] = target: Glyceraldehyde-3-phosphate dehydrogenase (Homo sapiens, UniProt P04406)
Chain of Glyceraldehyde-3-phosphate dehydrogenase (P04406 whole entry): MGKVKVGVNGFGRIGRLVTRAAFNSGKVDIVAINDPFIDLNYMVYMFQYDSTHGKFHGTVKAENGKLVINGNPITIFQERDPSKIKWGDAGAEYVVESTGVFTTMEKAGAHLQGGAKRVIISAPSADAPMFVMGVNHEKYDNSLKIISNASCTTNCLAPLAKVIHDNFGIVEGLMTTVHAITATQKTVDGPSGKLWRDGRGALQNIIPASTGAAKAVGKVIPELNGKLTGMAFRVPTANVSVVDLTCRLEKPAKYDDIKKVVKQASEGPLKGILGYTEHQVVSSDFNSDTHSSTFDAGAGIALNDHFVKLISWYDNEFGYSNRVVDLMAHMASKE

cells = type: functional

## CC(=O)Nc1ccc(OS(=O)(=O)c2ccc([N+](=O)[O-])cc2)cc1
[1]
  EC50: > 60 µM (not active)
[2]
  EC50: 1.56 µM (active)
[3]
  IC50: 3.75 µM (active)

## CCN1CCN(C2=C(NS(=O)(=O)c3ccc(Br)cc3)C(=O)c3ccccc3C2=O)CC1
[4]
  AC50: 17.3 µM (active)
[5]
  AC50: 55.1 µM (active)
[6]
  AC50: > 70 µM (inactive)
[7]
  AC50: 8.92 µM (active)
[8]
  IC50: 24.3 µM (active)
[9]
  AC50: > 70 µM (inactive)
[10]
  AC50: 20.9 µM (active)
[11]
  AC50: 5.7 µM (active)
[12]
  AC50: > 70 µM (inactive)
[13]
  AC50: 20.9 µM (active)
[14]
  AC50: 34.3 µM (active)
[15]
  AC50: 4.5 µM (active)
[16]
  AC50: > 70 µM (inactive)
[17]
  AC50: 48.4 µM (active)
[18]
  AC50: 46.2 µM (active)

## CCOc1ccc(OCc2ccc(C(=O)OCc3ccccn3)o2)cc1
HT-1080
  EC50: > 50 µM (not active)
[19]
  IC50: > 100 µM (not active)
cells
  IC50: 36 µM (active)
